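48-hour exposure; five concentrations; linearly interpolated endpoints. Abbreviation: GI50, concentration required for 50% inhibition of growth.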 Active and inactive are the calls of the source. No stated cut-off is given here; in the data, active = GI50 up to about 1.1 µM and inactive = higher.
Columns and labels:
Assay in all cases: growth of human tumour cells (NCI), 48 h
A549 = system: A549
DU-145 = system: DU-145
HCT-15 = system: HCT-15
HL-60 = system: HL-60
K562 = system: K562
MDA-MB-231 = system: MDA-MB-231
MOLT-4 = system: MOLT-4
NCI-H226 = system: NCI-H226
NCI/ADR-RES = system: NCI/ADR-RES
OVCAR-4 = system: OVCAR-4
PC-3 = system: PC-3
SF-539 = system: SF-539
SR = system: SR
UACC-62 = system: UACC-62
DMS-114 = system: DMS-114
M19-MEL = system: M19-MEL
SNB-78 = system: SNB-78
DMS-273 = system: DMS-273

Row | Compound | GI50 (A549) | GI50 (DU-145) | GI50 (HCT-15) | GI50 (HL-60) | GI50 (K562) | GI50 (MDA-MB-231) | GI50 (MOLT-4) | GI50 (NCI-H226) | GI50 (NCI/ADR-RES) | GI50 (OVCAR-4) | GI50 (PC-3) | GI50 (SF-539) | GI50 (SR) | GI50 (UACC-62) | GI50 (DMS-114) | GI50 (M19-MEL) | GI50 (SNB-78) | GI50 (DMS-273)
1 | NS(=O)(=O)c1ccc(/N=N/c2ncccc2O)cc1 | > 100 µM (inactive) | 38.5 µM (inactive) | > 100 µM | 41.1 µM (inactive) | 40.2 µM (inactive) | > 100 µM (inactive) | 22.6 µM (inactive) | > 100 µM (inactive) | > 100 µM (inactive) | 57.7 µM (inactive) | > 100 µM (inactive) | 55.6 µM (inactive) | 23.1 µM (inactive) | > 100 µM (inactive) |  |  |  | 
2 | Cc1nc(O)c(Cc2ccccc2O)c(-c2ccccc2)n1 | > 100 µM (inactive) | > 100 µM (inactive) | > 100 µM | > 100 µM (inactive) | > 100 µM (inactive) | 98.9 µM (inactive) | > 100 µM (inactive) | > 100 µM (inactive) | > 100 µM (inactive) | > 100 µM (inactive) | > 100 µM (inactive) | > 100 µM (inactive) | > 100 µM (inactive) | > 100 µM (inactive) |  |  |  | 
3 | CC1(C)CCC[C@@]2(C)C1C(=O)[C@@H]1O[C@]1(C)[C@@H]2CO (some centres not stated) | 19.6 µM (inactive) | 38.5 µM (inactive) | 38 µM | 17.4 µM (inactive) | 27.3 µM (inactive) | 49 µM (inactive) | 39 µM (inactive) | 33.3 µM (inactive) | 48.8 µM (inactive) | 24.4 µM (inactive) | 35.4 µM (inactive) | 37.8 µM (inactive) | 0.587 µM (active) | 37.2 µM (inactive) |  |  |  | 
4 | CCCCc1ccc(Nc2nc3c(ncn3COCCBr)c(=O)[nH]2)cc1 | > 100 µM (inactive) | > 100 µM (inactive) | > 100 µM | > 100 µM (inactive) | > 100 µM (inactive) | > 100 µM (inactive) | > 100 µM (inactive) | > 100 µM (inactive) | > 100 µM (inactive) | > 100 µM (inactive) | > 100 µM (inactive) | > 100 µM (inactive) | 86.3 µM (inactive) | > 100 µM (inactive) |  |  |  | 
5 | NC(=O)c1ccc(NCC2=CC(=O)C=CC2=O)cc1 | > 100 µM (inactive) | > 100 µM (inactive) | 19.2 µM | 11.5 µM (inactive) | 21.8 µM (inactive) | 20.1 µM (inactive) | 18.8 µM (inactive) | > 100 µM (inactive) | 25.6 µM (inactive) | 19.8 µM (inactive) | 18.6 µM (inactive) | 17.1 µM (inactive) | 24.9 µM (inactive) | 20.4 µM (inactive) |  |  |  | 
6 | CCOC(=O)c1c(C)n(Cc2ccccc2)c(=O)c2ccccc2c(=O)c2c(=O)ccc(=O)c1=2 | > 100 µM (inactive) | > 100 µM (inactive) | 34.8 µM | > 100 µM (inactive) | 43.3 µM (inactive) | 65 µM (inactive) | 54.7 µM (inactive) | > 100 µM (inactive) | 92.7 µM (inactive) | 45 µM (inactive) | 39.7 µM (inactive) | 48.2 µM (inactive) | 30.8 µM (inactive) | > 100 µM (inactive) |  |  |  | 
7 | Cc1ccc(S(=O)(=O)N/N=C(\C(=O)Nc2cccc([N+](=O)[O-])c2)c2nc3ccc([N+](=O)[O-])cc3nc2O)cc1 | 31.8 µM (inactive) |  | 16.3 µM |  | 7.38 µM (inactive) |  | 24 µM (inactive) | 37.2 µM (inactive) |  | > 100 µM (inactive) |  | 24.6 µM (inactive) | 34 µM (inactive) | 25.4 µM (inactive) | 10.2 µM (inactive) | 43.7 µM (inactive) | > 100 µM (inactive) | 
8 | COc1cc(C(C)c2cc3c(cc2OCCNC(=O)COc2cc4c(cc2C(C)c2cc(OC)c(OC)c(OC)c2)OCO4)OCO3)cc(OC)c1OC (configuration not stated) | > 100 µM (inactive) |  | 87.3 µM | > 100 µM (inactive) | 73.1 µM (inactive) |  | 7.13 µM (inactive) | > 100 µM (inactive) |  | > 100 µM (inactive) |  | > 100 µM (inactive) | > 100 µM (inactive) | 6.78 µM (inactive) | 26.9 µM (inactive) | 80.2 µM (inactive) |  | 75.9 µM (inactive)
9 | COC(=O)C1=C(C(=O)OC)C2=S(SC3=C2CCCC3)S1 (configuration not stated) | 36.1 µM (inactive) |  | 13.3 µM | 9.48 µM (inactive) | 4.35 µM (inactive) |  | 12 µM (inactive) |  |  | 19 µM (inactive) |  | 25.1 µM (inactive) |  | 26 µM (inactive) |  | 26.5 µM (inactive) |  | 13.1 µM (inactive)
10 | O=C1CCCCC1CN1CCCCC1 (configuration not stated) | > 100 µM (inactive) | > 100 µM (inactive) | > 100 µM | > 100 µM (inactive) | > 100 µM (inactive) | > 100 µM (inactive) | > 100 µM (inactive) | > 100 µM (inactive) | > 100 µM (inactive) | > 100 µM (inactive) | > 100 µM (inactive) | > 100 µM (inactive) | 8.89 µM (inactive) | > 100 µM (inactive) |  |  |  | 
11 | CC(=O)N(CN1C(=O)CCC1C(=O)O)c1ccccc1 (configuration not stated) | > 55.1 µM (inactive) | > 61.4 µM (inactive) | > 100 µM | > 55.7 µM (inactive) | > 53 µM (inactive) | > 48.8 µM (inactive) | > 54.2 µM (inactive) | > 52.7 µM (inactive) | 29.9 µM (inactive) | > 100 µM (inactive) | > 55.8 µM (inactive) | > 50.6 µM (inactive) | > 100 µM (inactive) | > 51.9 µM (inactive) |  |  |  | 
12 | CCc1cccc(C(C)C)c1NC1=C([n+]2ccc(C)cc2)C(=O)c2ccccc2C1=O.[O-][Cl+3]([O-])([O-])[O-] | 2.37 µM (inactive) | 0.667 µM (active) | 3.62 µM | 1.18 µM (inactive) | 1.91 µM (inactive) | 2.21 µM (inactive) | 0.3 µM (active) | 1.39 µM (inactive) | 4.92 µM (inactive) | 1.73 µM (inactive) | 1.54 µM (inactive) | 0.895 µM (active) | 0.0525 µM (active) | 0.822 µM (active) |  |  |  | 
13 | CCN(CC)/C(SCc1ccccc1)=C(\C(Cl)=C(Cl)Cl)[N+](=O)[O-] | 16.6 µM (inactive) | 18 µM (inactive) | 25.5 µM | 15.8 µM (inactive) | 25.8 µM (inactive) | 27.1 µM (inactive) | 13.5 µM (inactive) | 18.9 µM (inactive) | 17.1 µM (inactive) | 15.6 µM (inactive) | 21.6 µM (inactive) | 19.7 µM (inactive) | 17.8 µM (inactive) | 3.87 µM (inactive) |  |  |  | 
14 | Cc1ccc(C(=O)Nc2ccccc2)cc1/N=N/N(C)C | > 100 µM (inactive) |  | > 100 µM |  |  |  |  |  |  | > 100 µM (inactive) |  | > 100 µM (inactive) |  | > 100 µM (inactive) |  | > 100 µM (inactive) | > 100 µM (inactive) | > 100 µM (inactive)
15 | O=C/C=C/c1ccco1 | > 100 µM (inactive) | > 100 µM (inactive) | > 100 µM | 5.56 µM (inactive) | > 100 µM (inactive) | > 100 µM (inactive) | > 100 µM (inactive) | > 100 µM (inactive) | > 100 µM (inactive) | > 100 µM (inactive) | > 100 µM (inactive) | 94.8 µM (inactive) | 31.3 µM (inactive) | > 100 µM (inactive) |  |  |  | 

From ChEMBL document CHEMBL1201862, “PubChem BioAssay data set” (2004)
